Usually Kd stands for the constant that tells how readily two partners part at equilibrium.

Here are results for 1 compound from BindingDB's records for patent US20240417410 (Hoffmann-La Roche, 2024).

This test has as its target Peptidyl-prolyl cis-trans isomerase A (Homo sapiens, UniProt P62937). The test is described as follows: CYPA Binding Analysis by Surface Plasmon Resonance (SPR) Assay. The procedure: All SPR experiments were conducted on a Biacore 8K+ instrument (Cytiva). Recombinant biotinylated CYPA protein with a C-terminal AVI tag was purified and immobilized on flow cell 2 of SA chip (Cytiva, BR100531), with the flow cell 1 as the blank reference. The running buffer was HBS-P+ Buffer (Cytiva, BR100827, 0.01 M HEPES pH 7.4,0.15 M NaCl, 0.05% v/v Surfactant P20), and the flow rate was 10 μL/min. The immobilization level was achieved to about 1800 response units (RU). Compounds were 3-fold serially diluted to 1.5-3333 nM using HBS-P+Buffer with a final DMSO concentration of 1.5%, and then loaded to flow through the chip surface at a rate of 30 μL/min with HBS-P+Buffer containing 1.5% DMSO as the running buffer. Experiments were performed at 25° C. The contact time and dissociation time were set to 60 s and 200 s, respectively. After binding and dissociation of each sample, the chip was regenerated using 1 M NaCl with a short contact time of 19 s at a rate of 60 μL/min. The sensorgrams were analyzed using Biacore Insight Evaluation software with 1:1 kinetics binding model to determine the association rate constant (kon), dissociation rate constant (koff) and equilibrium dissociation constant (KD).

Sequence of Peptidyl-prolyl cis-trans isomerase A (P62937 whole entry): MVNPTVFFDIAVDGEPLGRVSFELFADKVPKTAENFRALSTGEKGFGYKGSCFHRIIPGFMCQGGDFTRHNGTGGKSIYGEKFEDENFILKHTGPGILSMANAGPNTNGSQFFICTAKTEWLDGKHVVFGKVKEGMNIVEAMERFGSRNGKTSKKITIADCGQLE

`CCn1c(-c2cc(N3CCN(C)CC3)cnc2[C@H](C)OC)c2c3cc(ccc31)-c1csc(n1)C[C@H](NC(=O)[C@H]1C[C@@H]1C)C(=O)N1CCC[C@H](N1)C(=O)OCC(C)(C)O2` [US20240417410, Example A122] came in with a dissociation constant Kd of 30 nM.
